Measurements reported in publication PMC4326489, “Efficacy and pharmacokinetic evaluation of a novel anti-malarial compound (NP046) in a mouse model” (Malaria Journal, 2015).
≈ marks a conversion by molar mass, not a printed value.

Columns and labels:
[1] = system: Plasmodium berghei transfected with green fluorescence protein (strain ANKA); test: In vivo efficacy (four-day dosing) in P. berghei-infected mice, % parasitaemia by flow cytometry; set-up: species or system Plasmodium berghei in male C57BL/6 mice; conditions: 10 mg/kg oral, day five post-infection
Description: Plasmodium berghei transfected with green fluorescence protein (strain ANKA), a chloroquine-sensitive strain, was stored in liquid nitrogen. Parasites were thawed and administered intraperitoneally (IP) to infect two donor mice a week before the experiment commenced. […] Finally, each of the test animals received 200 μl of the P. berghei-infected RBCs (1×10^7 per 200 μl PBS) IP to infect them with the parasite. There were three animals per dose group, and each of them received 200 μl of NP046 in water orally and intravenously (volume adjusted relative to the weight of mouse) at their respective dose concentration as shown below:
The test compound was administered to the animals once a day for four days. […] Blood samples were collected via tail bleeding in tubes containing PBS on day 5, and % parasitaemia was determined with FACSCalibur™ using the software CellQuestPro [5].
Finally, the percentage parasite growth inhibition was calculated using the following equation [6]: [drawing 1]

[2] = Kinetic solubility (HPLC-UV); type: physicochemical; conditions: aqueous buffer, kinetic from dmso stock, PBS pH 2.0
Description: The concentration of the test compound (x) in PBS samples was calculated from the peak area (y) in its UV chromatogram by extrapolation from the three-point calibration line, using the equation y = ax + b; where a = slope and b = intercept.
Summary of the assay method for the determination kinetic solubility:
PBS was prepared and its pH adjusted to 2.0 and 7.4
primary stock solutions of the test compounds and controls (reserpine and hydrocortisone) in DMSO at 10 mM were prepared
Samples were briefly vortex mixed
samples were incubated for 2 hours while mixing in an incubator with orbital shaker at 200 rpm
samples were centrifuged at 3500 rpm for 15 minutes at 22 °C
the supernatant of the standards were transferred from the clear 96-well plate into an opaque, round bottom 96-well analysis plate, while the aqueous samples were filtered using a vacuum manifold through a multi-screen filter plate (MSRLN 0450, 0.4 µM), into the same opaque, round bottom 96-well plate
samples were analysed using HPLC-UV method by injecting the STDs in duplicate, and the samples in singlet.

Compound	% growth inhibition ([1]; relative to negative control (placebo))	% parasitaemia ([1]; once a day for four days, mean ± S.E.M)	solubility at 2 h [2]
CCN(CC)CCCC(C)Nc1ccnc2cc(Cl)ccc12 (stereo not drawn) [Positive control, chloroquine phosphate, reference compound]	100%	0.01 ± 0.0%	–
COC(=O)[C@H]1[C@H]2C[C@@H]3c4[nH]c5cc(OC)ccc5c4CCN3C[C@H]2C[C@@H](OC(=O)c2cc(OC)c(OC)c(OC)c2)[C@@H]1OC [Reserpine, reference compound]	–	–	193 µM (≈ 117 µg/mL)
